Patent publication US20260053811A1, “METHODS OF TREATING HYPERTENSION IN OBESE SUBJECTS” (Mineralys Therapeutics, Inc., priority 2022, published 2026)

Test system: hypertensive subjects
Test: Seated automated office blood pressure (AOBP) in randomized, placebo-controlled, dose-ranging study
Format: in vivo, human
Details: Part 1, 50 mg QD
Protocol: A randomized, double-blinded, placebo-controlled, dose-ranging, multicenter study was conducted to evaluate the effect of orally administered Compound A HBr on blood pressure for the treatment of hypertension in male and female subjects ≥18 years of age.
The study consists of two parts. For enrollment into Part 1 of the study, a subject's value of plasma renin activity (PRA) must be ≤1 ng/mL/h based on morning measurement. If the value of PRA >1 ng/mL/h based on morning measurement, then subjects may be eligible to enter Part 2 of the study.
For Part 1, 163 enrolled subjects ≥18 years of age were randomized into 6 equal treatment groups (1:1:1:1:1:1) to 12.5 mg BID, 25 mg BID, 12.5 mg QD, 50 mg QD, 100 mg QD, or placebo. After a review of interim clinical data, the 2 lowest dose levels (12.5 mg QD and 12.5 mg BID) were stopped for future randomization due to a lack of consistent meaningful reduction of blood pressure, but the patients randomized to that point remained in the study through completion. Thus, after the review of interim clinical data, subjects were randomized into 4 equal treatment groups (1:1:1:1) to 25 mg BID, 50 mg QD, 100 mg QD, or placebo.
For Part 2, 36 enrolled subjects ≥18 years of age were randomized (5:1) to either 100 mg QD Compound A HBr or placebo such that the Compound A HBr treatment group consisted of approximately 30 subjects and the placebo treatment group will consist of approximately 6 subjects.
Subjects orally administered the assigned study drug (Compound A HBr or placebo) according to the assigned dosing regimen for 8 weeks beginning on Study Day 1. All subjects in Part 1 (regardless of dosing group) received BID dosing to preserve the integrity of the blind; active drug is administered as the morning dose for all QD dose groups. Subjects returned to the research facility or were seen by the clinical investigator or approved home health care professional at the end of Study Weeks 1, 2, 3, 4, 5, 6, 7, and 8 (±2 days) for protocol-defined efficacy and safety assessments and procedures, assessment of adverse events (AEs), and confirmation of compliance with study drug usage. Subjects also completed a telephone visit and blood pressure (BP) check at home approximately 3 days post last dose of study drug. Subjects attended up to 14 full clinic visits, including a pre-Screening visit, a Screening/start of Placebo Run-in visit, a second visit during Placebo Run-in, a clinic visit to initiate the ABPM procedure, a Randomization visit, 8 weekly visits during double-blind treatment, and an end-of-study visit scheduled 4 weeks after the last study treatment for final efficacy and safety assessments.
An automated oscillometric sphygmomanometer device was used to measure the subjects' systolic and diastolic blood pressure in office after approximately 5 minutes of rest in the seated position.
The primary endpoint is the change in office-measured (mean of last 2 of 5 unattended measurements using an automated oscillometric sphygmomanometer device after approximately 5 minutes of rest in the seated position) systolic blood pressure (SBP) from baseline to the end of Study Week 8.
Secondary endpoints of this study were: • (a) Change in 24-hour ambulatory blood pressure monitoring (ABPM) parameters (systolic and diastolic) from baseline to the end of Study Week 7. • (b) Change in office-measured SBP from baseline to the end of Study Weeks 1, 2, 3, 4, 5, 6, and 7. • (c) Change in office-measured diastolic blood pressure (DBP) from baseline to the end of Study Weeks 1, 2, 3, 4, 5, 6, 7, and 8. • (d) Proportion of subjects who achieve office-measured BP of ≤130/80 mm Hg by the end of Study Week 8.

With CC(=O)N[C@H]1CC[C@H](NC(=O)CN2CCN(c3nncc(-c4ccc(C)cc4)n3)CC2)CC1 [Compound A HBr] the “Mean (SD) Change from Baseline at Week 8 in Automated Office-Measured Systolic Blood Pressure” value (ACEi/ARB Yes) was −15.75 (17.46) mmHg, the “Mean (SD) Automated Office-Measured Diastolic Blood Pressure at Wk 8” value (ACEi/ARBs No) was 78.75 (13.72) mmHg and the “Mean (SD) Change from Baseline at Week 8 in Automated Office-Measured Diastolic Blood Pressure” value (ACEi/ARBs No) was −4.44 (10.67) mmHg. The “Mean (SD) Automated Office-Measured Diastolic Blood Pressure at Wk 8” value (ACEi/ARBs Yes) was 76.05 (8.09) mmHg, the “Mean (SD) Change from Baseline at Week 8 in Automated Office-Measured Diastolic Blood Pressure” value (ACEi/ARBs Yes) was −9.50 (8.30) mmHg and the “Mean (SD) Automated Office-Measured Diastolic Blood Pressure at Wk 8” value (AHTs 2) was 76.40 (10.12) mmHg. For the same molecule, the “Mean (SD) Automated Office-Measured Systolic Blood Pressure at Wk 8” value (AHTs 2) was 129.60 (13.98) mmHg, the “Mean (SD) Change from Baseline at Week 8 in Automated Office-Measured Diastolic Blood Pressure” value (AHTs 2) was −7.03 (9.50) mmHg and the “Mean (SD) Change from Baseline at Week 8 in Automated Office-Measured Systolic Blood Pressure” value (AHTs 2) was −10.28 (15.34) mmHg. For the same molecule, the “Mean (SD) Automated Office-Measured Diastolic Blood Pressure at Wk 8” value (AHTs ≥3) was 77.88 (9.58) mmHg, the “Mean (SD) Automated Office-Measured Systolic Blood Pressure at Wk 8” value (AHTs ≥3) was 126.25 (13.56) mmHg and the “Mean (SD) Change from Baseline at Week 8 in Automated Office-Measured Diastolic Blood Pressure” value (AHTs ≥3) was −10.63 (8.12) mmHg. The “Mean (SD) Change from Baseline at Week 8 in Automated Office-Measured Systolic Blood Pressure” value (AHTs ≥3) was −20.44 (20.36) mmHg, the “Mean (SD) Automated Office-Measured Diastolic Blood Pressure at Wk 8” value (Age 65-79 yr) was 72.54 (8.04) mmHg and the “Mean (SD) Automated Office-Measured Systolic Blood Pressure at Wk 8” value (Age 65-79 yr) was 127.92 (13.82) mmHg. The “Mean (SD) Change from Baseline at Week 8 in Automated Office-Measured Diastolic Blood Pressure” value (Age 65-79 yr) was −8.88 (9.23) mmHg, the “Mean (SD) Change from Baseline at Week 8 in Automated Office-Measured Systolic Blood Pressure” value (Age 65-79 yr) was −15.15 (18.27) mmHg and the “Mean (SD) Automated Office-Measured Diastolic Blood Pressure at Wk 8” value (Age <65 yr) was 80.53 (9.93) mmHg. The “Mean (SD) Automated Office-Measured Systolic Blood Pressure at Wk 8” value (Age <65 yr) was 129.27 (14.04) mmHg, the “Mean (SD) Change from Baseline at Week 8 in Automated Office-Measured Diastolic Blood Pressure” value (Age <65 yr) was −7.33 (9.30) mmHg and the “Mean (SD) Change from Baseline at Week 8 in Automated Office-Measured Systolic Blood Pressure” value (Age <65 yr) was −11.47 (16.60) mmHg. The “Mean (SD) Automated Office-Measured Diastolic Blood Pressure at Wk 8” value (BMI 25−30 kg/m^2) was 80.27 (6.29) mmHg, the “Mean (SD) Change from Baseline at Week 8 in Automated Office-Measured Diastolic Blood Pressure” value (BMI 25−30 kg/m^2) was −4.50 (8.75) mmHg and the “Mean (SD) Automated Office-Measured Diastolic Blood Pressure at Wk 8” value (BMI <25 kg/m^2) was 61.00 (NE) mmHg. The “Mean (SD) Change from Baseline at Week 8 in Automated Office-Measured Diastolic Blood Pressure” value (BMI <25 kg/m^2) was −24.50 (NE) mmHg, the “Mean (SD) Automated Office-Measured Diastolic Blood Pressure at Wk 8” value (BMI >30 kg/m^2) was 76.07 (11.02) mmHg and the “Mean (SD) Change from Baseline at Week 8 in Automated Office-Measured Diastolic Blood Pressure” value (BMI >30 kg/m^2) was −9.67 (8.59) mmHg. The “Mean (SD) Automated Office-Measured Systolic Blood Pressure at Wk 8” value (BMI at baseline 25-30 kg/m^2) was 136.64 (14.70) mmHg, the “Mean (SD) Change from Baseline at Week 8 in Automated Office-Measured Systolic Blood Pressure” value (BMI at baseline 25-30 kg/m^2) was −2.45 (15.21) mmHg and the “Mean (SD) Automated Office-Measured Systolic Blood Pressure at Wk 8” value (BMI at baseline <25 kg/m^2) was 118.00 (NE) mmHg. For the same molecule, the “Mean (SD) Change from Baseline at Week 8 in Automated Office-Measured Systolic Blood Pressure” value (BMI at baseline <25 kg/m^2) was −38.00 (NE) mmHg, the “Mean (SD) Automated Office-Measured Systolic Blood Pressure at Wk 8” value (BMI at baseline >30 kg/m^2) was 124.13 (10.98) mmHg and the “Mean (SD) Change from Baseline at Week 8 in Automated Office-Measured Systolic Blood Pressure” value (BMI at baseline >30 kg/m^2) was −19.27 (15.13) mmHg. The “Mean (SD) Automated Office-Measured Diastolic Blood Pressure at Wk 8” value (Race Black or AA) was 83.25 (8.88) mmHg, the “Mean (SD) Automated Office-Measured Systolic Blood Pressure at Wk 8” value (Race Black or AA) was 130.38 (14.12) mmHg and the “Mean (SD) Change from Baseline at Week 8 in Automated Office-Measured Diastolic Blood Pressure” value (Race Black or AA) was −4.88 (8.84) mmHg. The “Mean (SD) Change from Baseline at Week 8 in Automated Office-Measured Systolic Blood Pressure” value (Race Black or AA) was −12.31 (18.13) mmHg, the “Mean (SD) Automated Office-Measured Diastolic Blood Pressure at Wk 8” value (Race Other) was 74.25 (9.14) mmHg and the “Mean (SD) Automated Office-Measured Systolic Blood Pressure at Wk 8” value (Race Other) was 127.95 (13.83) mmHg. The “Mean (SD) Change from Baseline at Week 8 in Automated Office-Measured Diastolic Blood Pressure” value (Race Other) was −9.33 (9.15) mmHg, the “Mean (SD) Change from Baseline at Week 8 in Automated Office-Measured Systolic Blood Pressure” value (Race Other) was −13.53 (17.25) mmHg and the “Mean (SD) Automated Office-Measured Diastolic Blood Pressure at Wk 8” value (Seated SBP Tertile High) was 73.25 (8.33) mmHg. The “Mean (SD) Change from Baseline at Week 8 in Automated Office-Measured Diastolic Blood Pressure” value (Seated SBP Tertile High) was −13.94 (7.82) mmHg, the “Mean (SD) Automated Office-Measured Diastolic Blood Pressure at Wk 8” value (Seated SBP Tertile Low) was 81.08 (9.65) mmHg and the “Mean (SD) Change from Baseline at Week 8 in Automated Office-Measured Diastolic Blood Pressure” value (Seated SBP Tertile Low) was 2.42 (8.22) mmHg. The “Mean (SD) Automated Office-Measured Diastolic Blood Pressure at Wk 8” value (Seated SBP Tertile Middle) was 74.00 (10.06) mmHg.
